From ChEMBL document CHEMBL1201862, “PubChem BioAssay data set” (2004)
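1) Cells in 96-well plates. 2) Compound, 48 h, 5 concentrations. 3) Linear interpolation between surrounding doses. 4) Unreached endpoint = highest concentration. Here, GI50 denotes the concentration required for 50% inhibition of growth.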 Active and inactive are the calls of the source. Rule as the data show it: active = GI50 up to about 1.1 µM and inactive = higher.

Experiments:
Experiment in all cases: NCI-60 cell line screen, 48 h
786-0 = system: 786-0
A498 = system: A498
A549 = system: A549
ACHN = system: ACHN
CAKI-1 = system: CAKI-1
CCRF-CEM = system: CCRF-CEM
COLO 205 = system: COLO 205
DLD-1 = system: DLD-1
DMS-114 = system: DMS-114
DMS-273 = system: DMS-273
HCC 2998 = system: HCC 2998
HCT-116 = system: HCT-116
HCT-15 = system: HCT-15
HL-60 = system: HL-60
HOP-18 = system: HOP-18
HOP-62 = system: HOP-62
HT-29 = system: HT-29
IGROV-1 = system: IGROV-1
K562 = system: K562
KM-20L2 = system: KM-20L2
KM12 = system: KM12
LOX IMVI = system: LOX IMVI
LXFL 529 = system: LXFL 529
M14 = system: M14
M19-MEL = system: M19-MEL
MOLT-4 = system: MOLT-4
Malme-3M = system: Malme-3M
NCI-H226 = system: NCI-H226
NCI-H23 = system: NCI-H23
NCI-H460 = system: NCI-H460
NCI-H522 = system: NCI-H522
OVCAR-3 = system: OVCAR-3
OVCAR-4 = system: OVCAR-4
OVCAR-5 = system: OVCAR-5
OVCAR-8 = system: OVCAR-8
RXF 393 = system: RXF 393
SF-268 = system: SF-268
SF-295 = system: SF-295
SF-539 = system: SF-539
SK-MEL-28 = system: SK-MEL-28
SK-MEL-2 = system: SK-MEL-2
SK-MEL-5 = system: SK-MEL-5
SK-OV-3 = system: SK-OV-3
SN12C = system: SN12C
SNB-19 = system: SNB-19
SNB-75 = system: SNB-75
SNB-78 = system: SNB-78
SW-620 = system: SW-620
TK-10 = system: TK-10
U-251 = system: U-251
UACC-257 = system: UACC-257
UO-31 = system: UO-31
EKVX = system: EKVX
HOP-92 = system: HOP-92
RPMI-8226 = system: RPMI-8226
UACC-62 = system: UACC-62
XF498 = system: XF498

CC(=O)Nc1ccc(-c2nnc(SCC(=O)Nc3ccc(Cl)cc3Cl)o2)cc1
GI50 (786-0): 16.1 µM (inactive) | GI50 (A498): 40.8 µM (inactive) | GI50 (A549): > 100 µM (inactive) | GI50 (ACHN): 44.6 µM (inactive) | GI50 (CAKI-1): > 100 µM (inactive) | GI50 (CCRF-CEM): 25.4 µM (inactive) | GI50 (COLO 205): 28.6 µM (inactive) | GI50 (DLD-1): 35.1 µM (inactive) | GI50 (DMS-114): 15.7 µM (inactive) | GI50 (DMS-273): 39.5 µM (inactive) | GI50 (HCC 2998): > 100 µM (inactive) | GI50 (HCT-116): 40.5 µM (inactive) | GI50 (HCT-15): 38.5 µM | GI50 (HL-60): 27.8 µM (inactive) | GI50 (HOP-18): 55.3 µM (inactive) | GI50 (HOP-62): 70 µM (inactive) | GI50 (HT-29): 31.8 µM (inactive) | GI50 (IGROV-1): 37.1 µM (inactive) | GI50 (K562): 28.8 µM (inactive) | GI50 (KM-20L2): 42.7 µM (inactive) | GI50 (KM12): 65.9 µM (inactive) | GI50 (LOX IMVI): 27.8 µM (inactive) | GI50 (LXFL 529): 19.3 µM (inactive) | GI50 (M14): 29.3 µM (inactive) | GI50 (M19-MEL): 51.9 µM (inactive) | GI50 (MOLT-4): 40.8 µM (inactive) | GI50 (Malme-3M): 20.7 µM (inactive) | GI50 (NCI-H226): 29.2 µM (inactive) | GI50 (NCI-H23): 26.2 µM (inactive) | GI50 (NCI-H460): 32.9 µM (inactive) | GI50 (NCI-H522): 20.7 µM (inactive) | GI50 (OVCAR-3): 18.6 µM (inactive) | GI50 (OVCAR-4): 37.4 µM (inactive) | GI50 (OVCAR-5): > 100 µM (inactive) | GI50 (OVCAR-8): 38.2 µM (inactive) | GI50 (RXF 393): 33.7 µM (inactive) | GI50 (SF-268): 44.7 µM (inactive) | GI50 (SF-295): 57.8 µM (inactive) | GI50 (SF-539): 33 µM (inactive) | GI50 (SK-MEL-28): > 100 µM (inactive) | GI50 (SK-MEL-2): > 100 µM (inactive) | GI50 (SK-MEL-5): 19.5 µM (inactive) | GI50 (SK-OV-3): 64.3 µM (inactive) | GI50 (SN12C): 20.2 µM (inactive) | GI50 (SNB-19): 22.6 µM (inactive) | GI50 (SNB-75): 31.3 µM (inactive) | GI50 (SNB-78): > 100 µM (inactive) | GI50 (SW-620): 32.4 µM (inactive) | GI50 (TK-10): 96.8 µM (inactive) | GI50 (U-251): 18 µM (inactive) | GI50 (UACC-257): 44.2 µM (inactive) | GI50 (UO-31): 94.8 µM (inactive)

CC(C)(C)OP(=O)(OC(C)(C)C)C(O)c1ccc(/C=C(\C#N)C(N)=O)cc1 (configuration not stated)
GI50 (786-0): > 100 µM (inactive) | GI50 (A498): > 100 µM (inactive) | GI50 (A549): > 100 µM (inactive) | GI50 (ACHN): > 100 µM (inactive) | GI50 (CAKI-1): > 100 µM (inactive) | GI50 (CCRF-CEM): > 100 µM (inactive) | GI50 (COLO 205): > 100 µM (inactive) | GI50 (DLD-1): > 100 µM (inactive) | GI50 (DMS-114): > 100 µM (inactive) | GI50 (DMS-273): > 100 µM (inactive) | GI50 (EKVX): > 100 µM (inactive) | GI50 (HCC 2998): > 100 µM (inactive) | GI50 (HCT-116): > 100 µM (inactive) | GI50 (HCT-15): > 100 µM | GI50 (HL-60): 38.9 µM (inactive) | GI50 (HOP-62): > 100 µM (inactive) | GI50 (HOP-92): > 100 µM (inactive) | GI50 (HT-29): > 100 µM (inactive) | GI50 (IGROV-1): > 100 µM (inactive) | GI50 (K562): > 100 µM (inactive) | GI50 (KM-20L2): > 100 µM (inactive) | GI50 (KM12): > 100 µM (inactive) | GI50 (LOX IMVI): > 100 µM (inactive) | GI50 (LXFL 529): > 100 µM (inactive) | GI50 (M14): > 100 µM (inactive) | GI50 (M19-MEL): > 100 µM (inactive) | GI50 (MOLT-4): > 100 µM (inactive) | GI50 (Malme-3M): > 100 µM (inactive) | GI50 (NCI-H226): > 100 µM (inactive) | GI50 (NCI-H23): > 100 µM (inactive) | GI50 (NCI-H460): > 100 µM (inactive) | GI50 (NCI-H522): > 100 µM (inactive) | GI50 (OVCAR-3): > 100 µM (inactive) | GI50 (OVCAR-4): > 100 µM (inactive) | GI50 (OVCAR-5): > 100 µM (inactive) | GI50 (OVCAR-8): > 100 µM (inactive) | GI50 (RPMI-8226): > 100 µM (inactive) | GI50 (RXF 393): > 100 µM (inactive) | GI50 (SF-268): > 100 µM (inactive) | GI50 (SF-295): > 100 µM (inactive) | GI50 (SF-539): > 100 µM (inactive) | GI50 (SK-MEL-28): > 100 µM (inactive) | GI50 (SK-MEL-2): > 100 µM (inactive) | GI50 (SK-OV-3): > 100 µM (inactive) | GI50 (SN12C): > 100 µM (inactive) | GI50 (SNB-19): > 100 µM (inactive) | GI50 (SNB-75): > 100 µM (inactive) | GI50 (SNB-78): > 100 µM (inactive) | GI50 (SW-620): > 100 µM (inactive) | GI50 (TK-10): > 100 µM (inactive) | GI50 (U-251): > 100 µM (inactive) | GI50 (UACC-257): > 100 µM (inactive) | GI50 (UACC-62): > 100 µM (inactive) | GI50 (UO-31): > 100 µM (inactive) | GI50 (XF498): > 100 µM (inactive)
